# Assay results taken from PubChem BioAssay AID449762 (Southern Research Specialized Biocontainment Screening …, 2010).
# Results filed as inconclusive are left out.
# System: M. tuberculosis H37Rv growth inhibition, 7H9 media
# Test: M. tuberculosis growth inhibition, HTS (AID 449762);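 further: bacterial growth assessed after seven days of incubation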
# Conditions: for IC90: measured here: IC90 growth inhibition
Structure (SMILES),IC50,IC90
CCc1cccc2c(C(=O)CCl)c[nH]c12,0.78 µM,3.18 µM
Cc1cc(Nc2cc(Cl)nc(Sc3ccc(NC(=O)C4CC4)cc3)n2)n[nH]1,26.2 µM,45.1 µM
COCCCN=C1NN=C(c2cc(C)n(Cc3ccco3)c2C)CS1,60.9 µM,87.4 µM
CC(C)(C)c1nn(-c2ccccc2)c2[nH]c(=O)c(CNCc3ccc4c(c3)OCO4)cc12,20.4 µM,27.3 µM
COc1ccccc1C(=O)NC(=S)/C=C1/N(C)c2ccccc2C1(C)C,34.4 µM,43.9 µM
CCOC(=O)C1=C(C)Nc2nc(SCC(=O)OC)nn2C1c1cc(F)cc(F)c1 (stereo unspecified),5.06 µM,7.95 µM
Cc1ncsc1CCOC(=O)c1ccc([N+](=O)[O-])cc1,8.11 µM,> 100 µM
CCOC(=O)C1(CCOc2ccccc2)CCN(Cc2cccc(-n3cccn3)c2)CC1,25.4 µM,28.8 µM
C/C(=N\NC(N)=S)C1C2C3CC4C5CC(C42)C1C53 (stereo unspecified),28.1 µM,58.2 µM
Cc1cccc(NC(=O)CCSc2nnc(Cc3ccccc3)o2)c1,17.1 µM,49.3 µM
CSc1ccc(CNC(=O)c2ccc(NC(=O)C3=CSCCO3)cc2)cc1,0.66 µM,> 100 µM
CC(C)(C)c1ccc(C(=O)NC(=S)NNC(=O)COc2ccccc2)cc1,3.39 µM,8.56 µM
COc1ccc(NCc2nnc(SCC(=O)c3ccc(OC)cc3)o2)cc1,7.11 µM,13.4 µM
Cc1ccc(NC(=O)c2cnc(SCC(=O)NCC3CCCO3)n(C)c2=O)cc1C (stereo unspecified),9.73 µM,35.1 µM
CN1CCN(C2=Cc3ccc(Cl)cc3Sc3ccc(F)cc32)CC1,22.7 µM,32.9 µM
CCCCOC(=O)NS(=O)(=O)c1sc(CC(C)C)cc1-c1ccc(Cn2c(CC)nc3c(C)cc(C)nc32)cc1,26.4 µM,35.4 µM
Cn1cc(NC(=O)CCl)cn1,4.36 µM,8.63 µM
C(=C\c1nccc2c1[nH]c1ccccc12)/c1ccccc1,28.5 µM,48.2 µM
COC(=O)CCCCC1SCC(NC(=O)c2ccccc2)C1=O (stereo unspecified),8.79 µM,15.4 µM
CO[C@@H]1[C@@H](OC(N)=O)[C@@H](O)C(Oc2ccc3c(O)c(NC(=O)c4ccc(O)c(CC=C(C)C)c4)c(=O)oc3c2C)OC1(C)C (stereo partly specified),4.98 µM,9.66 µM
Cc1ccccc1Cn1cc(NC(=O)c2noc(C(C)C)c2[N+](=O)[O-])cn1,5.11 µM,8.72 µM
O=C(CN1CCN(c2nc(-c3ccc(F)cc3)cs2)CC1)NCc1ccc2c(c1)OCO2,42.6 µM,55.8 µM

Structure (SMILES),IC50,IC90
COc1ccc2c(c1)[C@@H]1[C@H](CO2)[C@H](c2ccccc2)[C@]2(C)C(=O)Nc3ccc(C)cc3C(=O)N12,49.5 µM,> 100 µM
CC(C)NCC(O)c1ccc(O)c(O)c1 (stereo unspecified),,> 100 µM
CCN1CCN(Cc2ccc(NC(=O)c3ccc(C)c(/C=C/c4cnc(Nc5cc(N6CCNCC6)nc(C)n5)cn4)c3)cc2C(F)(F)F)CC1,35.1 µM,57.9 µM
COCCn1nnnc1C(c1cc2cc(OC)ccc2[nH]c1=O)N1CCC(Cc2ccccc2)CC1 (stereo unspecified),89.2 µM,99.8 µM
C(=C\c1ccccc1)/C=N/Nc1nc2ccccc2s1,,> 100 µM
CC1(c2nnc(-c3ccncc3)o2)CC(c2ccccc2)=NO1 (stereo unspecified),63.3 µM,> 100 µM
O=C(CCl)N1CCCC1c1ccc2c(c1)OCCO2 (stereo unspecified),3.45 µM,9.07 µM
COC(=O)CSc1nnc([C@H](CC(C)C)NC(=O)OC(C)(C)C)o1,14.5 µM,32.9 µM
Cc1ccc(Cl)cc1N1CCN(Cc2nc3ccsc3c(=O)[nH]2)CC1,83.1 µM,> 100 µM
CCCCNC(=S)N(C)/N=C/c1ccc2c(c1)OCO2,12.2 µM,20.4 µM
Cc1c(C(=O)Oc2cccc3ccccc23)cnn1-c1ccccc1,23.7 µM,26.9 µM
Nc1c(-c2ccccn2)cnn1-c1nc(-c2ccc(F)cc2)cs1,12.6 µM,> 100 µM
Cc1ccc(CN2CC(C(=O)OCc3ccccc3Cl)CC2=O)cc1 (stereo unspecified),4.66 µM,28.7 µM
Cc1cc(C)c(CSc2ncc(-c3ccc([N+](=O)[O-])cc3)[nH]2)c(C)c1,42.5 µM,62.8 µM
CCCCCC(=O)NNC(=S)NC(=O)c1ccc([N+](=O)[O-])cc1,1.35 µM,4.43 µM
NNC(=S)NCc1ccc2c(c1)OCO2,23.8 µM,26.8 µM
CCCNC1=C(N(C(C)=O)c2cccc(F)c2)C(=O)c2ccccc2C1=O,11.4 µM,20.1 µM
COc1c[nH]n(C2CCCCC2)c(=O)c1=O,11.8 µM,18.1 µM
Cc1ccc(-c2noc(C3CCCN(C(=O)c4ccc(C(C)(C)C)cc4)C3)n2)o1 (stereo unspecified),48.2 µM,55.2 µM
CCCCN1C(=N)N([C@@H](CCC)CN2CCC[C@H]2CN2C(N)=NC[C@@H]2Cc2ccccc2)C[C@H]1Cc1ccccc1,12.8 µM,18.2 µM
CSc1ccc(NC(=O)Nc2cccn(Cc3ccccc3)c2=O)cc1,18.5 µM,> 100 µM
Cc1[nH]c2ccc(OC(F)(F)F)cc2c1CCNCc1ccc(Cl)cc1,10.9 µM,19 µM

Structure (SMILES),IC50,IC90
CCC(C)NC(=O)c1cn(CC)c2cc(N3CCN(C(=O)c4ccco4)CC3)c(F)cc2c1=O (stereo unspecified),9.33 µM,30.9 µM
C[N+](C)(CCCCCC[N+](C)(C)CCCN1C(=O)c2cccc3cccc(c23)C1=O)CCCN1C(=O)c2cccc3cccc(c23)C1=O,2.59 µM,3.72 µM
O=[N+]([O-])c1cc(-c2ccc(/C=N\n3cnnc3)o2)cc([N+](=O)[O-])c1,0.65 µM,1.86 µM
CNC(CC(=O)c1ccc([N+](=O)[O-])cc1)C(Cl)(Cl)Cl (stereo unspecified),2.26 µM,5.81 µM
CCOC(=O)c1c(NC(=O)CSc2nc3ccc(OC)cc3[nH]2)sc2c1CC(C)(C)NC2(C)C,21.1 µM,26.2 µM
COc1ccc2[nH]c3c(C)c4ccncc4c(C)c3c2c1,0.89 µM,2.68 µM
O=C(CN1CCN(Cc2ccc(Cl)cc2)CC1)N/N=C/C=C/c1ccccc1[N+](=O)[O-],26.8 µM,37.6 µM
CCOc1ccc(/C=N/Nc2ccc(Cl)nn2)c(O)c1,4.49 µM,7.48 µM
CC1(c2cc([N+](=O)[O-])cc([N+](=O)[O-])c2)CC(C)(C)N(C(=O)c2ccccc2)c2ccccc21 (stereo unspecified),12.1 µM,19.4 µM
CCn1cc([N+](=O)[O-])c(C(=O)N2N=C(c3ccc4ccccc4c3)CC2c2ccccc2O)n1 (stereo unspecified),49.6 µM,> 100 µM
COc1cc2c(C(=O)N3CCN(c4cccc(Cl)c4)CC3)cn(CC(C)C)c(=O)c2cc1OC,47.7 µM,53.9 µM
CC(C)CCC[C@@H](C)[C@H]1CC[C@H]2[C@@H]3C(=O)C=C4C[C@@H](O)CC[C@]4(C)[C@H]3CC[C@]12C,43.3 µM,47.8 µM
COc1cc(C)c(/C=C/C(C)=C/C=C/C(C)=C/C(=O)O)c(C)c1C,1.56 µM,6.76 µM
CC(C)C(=O)Nc1cccc(-c2nc3ccccc3c(=O)o2)c1,44.3 µM,> 100 µM
CCOC(=O)N1CCN(c2nc(N(c3ccccc3)c3ccccc3)nc(-n3ccnc3)n2)CC1,92.7 µM,> 100 µM
CCOc1ccc(-c2cc(C)[n+](CCc3ccc(OC)c(OC)c3)c(-c3ccc(OCC)cc3)c2)cc1,0.92 µM,1.8 µM
CCOC(=O)CNC(=O)CNC(=O)c1nn(-c2ccc(OC)c(Cl)c2)c(=O)c2ccccc12,22.2 µM,> 100 µM
CCn1c(SCC(=O)Nc2ccc3c(c2)oc2ccccc23)nnc1-c1ccc(N)cc1,,> 100 µM
COc1ccc(C2CC2/C(C)=N/OC(=O)c2ccc(F)cc2)cc1 (stereo unspecified),13.7 µM,51.6 µM
Cc1ccc(C#CC[N+]2(CC#Cc3ccc(C)cc3)CCCCC2)cc1,12.7 µM,14.4 µM
Fc1cccc(CCN2CCNC[C@H]2Cc2cccc3ccccc23)c1,36.6 µM,43.2 µM
CN1CCN2c3ccccc3Cc3ccccc3C2C1 (stereo unspecified),42.8 µM,> 100 µM

Structure (SMILES),IC50,IC90
CCCCCCCCCCOC(=O)Cn1c(COc2ccc(Cl)cc2)[n+](C)c2ccccc21,11.8 µM,13.3 µM
CCCc1cc(C(N)=S)ccn1,6.61 µM,> 100 µM
COc1ccccc1C1CC(c2ccc(Cl)cc2)Nc2ncnn21 (stereo unspecified),11 µM,17.7 µM
Cn1c(-c2c(N)n(CCc3ccccc3)c3nc4ccccc4nc23)nc2ccccc21,7.64 µM,> 100 µM
[O-][n+]1c2ccccc2c2n1CCN1CCOC21c1ccc(Cl)cc1 (stereo unspecified),26.1 µM,68 µM
S=c1nc2ccccc2c2nc(-c3ccccc3)[nH]n12,10.4 µM,14.6 µM
CC(C)Cn1c(N2CCN(C(=O)/C=C/c3ccccc3)CC2)nc2ccccc21,23.7 µM,27.2 µM
COC(=O)Cn1nc(-c2ccccc2)c2cc(Cl)ccc21,8.72 µM,51.7 µM
COc1ccc(C(CCN2CCCCC2)c2c(OC)cc(OC)c3c(-c4ccccc4)cc(=O)oc23)cc1 (stereo unspecified),15.1 µM,22.4 µM
CCOc1ccc(N2C=Nc3ccc(OCC)cc3C2)cc1,44 µM,89.4 µM
CC(=O)c1c(N2CCCC2)[nH]c(-c2ccccc2)nc1=S,16.2 µM,67.1 µM
CCCCS/C(N)=N/N=C/c1cc(C)ccc1O,12.3 µM,13.9 µM
c1ccc(/N=C2\N=C(Nc3ccccn3)c3ccccc32)nc1,1.08 µM,1.91 µM
COC(=O)C1CC(=O)N(c2ccc(OCc3ccccc3Cl)cc2)C1 (stereo unspecified),0.52 µM,3.52 µM
COc1ccccc1N1CCN(/N=C/C(Cl)=C/c2ccccc2)CC1,52.7 µM,> 100 µM
COC(=O)CSc1ncnc2c1sc1nc3c(cc12)COC(C)(C)C3,3.68 µM,17.3 µM
Cc1ccc(OC(=O)c2oc3ccc(F)cc3c2C)c(C)c1,6.82 µM,18.6 µM
Cc1ccc(NC(=O)C2C3/C=C\CCCCC32)cc1C (stereo unspecified),2.87 µM,3.29 µM
O=C(CN1CCN(c2ccccc2O)CC1)Nc1ccccc1C(=O)NCCc1ccccc1,44.3 µM,57.9 µM
O=C1/C(=C\c2ccncc2)CCc2ccccc21,20.8 µM,34.8 µM
COc1cc(OC)nc(-n2ncc(Br)c(Br)c2=O)n1,4.28 µM,60.7 µM
